Data taken from paper PMC6843786, “Temporin-SHa and Its Analogs as Potential Candidates for the Treatment of Helicobacter pylori” (Biomolecules, 2019).
Read-outs that look alike come from different tables or passages of the source. Non-standard residues stand in square brackets, D forms with d. Residues, ends and D or L forms follow the SMILES beside them.

Key:
[1] = test system: H. pylori (ATCC 43504)
From the text: (§1) H. pylori used in this study were either the reference strain obtained from the American Type Culture Collection (ATCC 43504) or clinical strains received frozen from our collaborator Josette Raymond from Hospital Cochin, Paris. Strains were obtained from patients who underwent a gastroendoscopy performed for various gastro-intestinal disorders according to the recommendations of Haute Autorité de Santé (HAS). During the endoscopy, biopsy samples were taken from antrum and corpus. Samples were then crushed, and the material was used for bacterial culture and molecular methods. An antibiogram was performed and strains were then frozen at -80 °C in a broth with 10% glycerol. Bacteria were cultured as previously described. Briefly, H. pylori (ATCC 43504) was cultured in brain heart infusion (BHI) and incubated at 37 °C for 16 h in microaerophilic condition in BD GasPak EZ using BD GasPak EZ CampyPak container system sachets (BD Biosciences, Le Pont-de-Claix, France). For clinical strains, a sample from the frozen bacteria was streaked on Blood Agar (Base) (Sigma-Aldrich, Illkirch-Graffenstaden, France) supplemented with 5% horse defibrinated blood (Fisher Scientific, Les Ulis, France) and 2% isovitale-X (Fisher Scientific, Illkirch-Graffenstaden, France). The petri dishes were then incubated at 37 °C for 4–7 days in microaerophilic condition. Then, a colony is transferred to 3 mL Mueller Hinton (MH) broth supplemented with 10% fetal bovine serum (FBS) and 2% isovitale-X. The cultures were then incubated for 4–7 days until the bacteria grow before further experiments.
(§2) Briefly, after the growth of H. pylori in liquid culture the optical density (OD) of the bacterial suspensions were read at 600 nm and adjusted to one. Stock solutions of the peptides at 1 mM were prepared in sterile water. Bacteria were diluted in medium to reach bacterial density around 10^5 bacteria/mL. One-hundred microliters per well of bacterial suspension were then added into sterile polypropylene 96-well microplates (Greiner BioOne, Paris, France) and exposed to increasing concentrations of peptides (from zero to 100 µM, 1:2 serial dilution). […] Plates were incubated at 37 °C for 24 h for H. pylori (ATCC 43504) and for 4–7 days for the clinical strains. H. pylori was tested in microaerophilic conditions generated using micro-anaerobic BD GasPak system. At the end of the incubation, OD600nm was measured using microplate reader (Synergy Mx, Biotek, Colmar, France). The MIC was defined as the lowest concentration of drug that inhibited visible growth of the organism. Experiments were conducted in independent triplicate (n = 3).

[2] = test system: clinical strains of H. pylori; settings: for MIC: MH + 10% FBS + 2% isovitale-X
From the text: as §1, §2

[3] = test system: H. pylori (ATCC 43504); test: Membrane permeabilization assay (propidium iodide); settings: propidium iodide, CTAB 300 µM = 100%
Procedure: Bacterial membrane permeabilization was evaluated using the cell-impermeable DNA/RNA probe propidium iodide as previously explained. Logarithmic growing bacterial suspension of H. pylori (ATCC 43504) was prepared from overnight bacterial suspension after 1:10 dilution. After 3 h incubation at 37 °C, in microaerophilic condition, bacterial suspensions were centrifuged for 5 min at 3000× g. Cell pellets were then resuspended in sterile PBS at about […]. Propidium iodide (solution at 1 mg/mL, Sigma Aldrich) was then added to the suspension at a final concentration of 60 µM. 100 µL of this suspension were then transferred into 96-well black plates and were exposed to increasing concentrations of peptides obtained by serial dilution (from zero to 100 µM, 1:2 dilution). […] Kinetics of fluorescence variations (excitation at 530 nm and emission at 590 nm) were then recorded over 240 min of incubation at 37 °C in micro-aerobic condition using a microplate reader (Biotek, Synergy Mx). The effect of the peptides on the membrane integrity was expressed in percentage of permeabilization, CTAB at 300 µM being used as positive control giving 100% permeabilization. All experiments were done in triplicate.

[4] = test system: H. pylori (ATCC 43504); remark: listed apart in the source
Procedure: The bactericidal activity of peptides was assessed using the time kill assay as previously described with some modifications. Briefly, overnight liquid culture of H. pylori (ATCC 43504) was prepared and an optical density measurement (OD600nm) was taken to provide an estimation of cell numbers in the culture. Bacterial suspension was then centrifuged at 3000 rpm for 5 min and the bacterial pellet was then resuspended in sterile PBS pH6 at approximatively 10^7 CFU/mL. The pH of PBS was changed from 7 to 6 with HCl to mimic the micro-environment surrounding H. pylori in the stomach. Indeed, although the lumen of the stomach is around 1–2, H. pylori is able, through the activity of its urease, to create a local micro-environment around it of pH 6 [31]. In addition to PBS pH 6, the time kill assay was also performed in PBS pH 6 containing a mixture of porcine stomach mucins MUC2 and MUC3 (at 1 mg/mL, final concentration) or in the presence of human gastric cells N87 producing human mucus. In that particular case, N87 cells were seeded onto 96-wells plates and left to grow for 48–72 h until they reached confluence. At that time, wells were aspirated and bacterial suspension in PBS pH 6 were added to the wells. In all cases, resuspended bacteria (200 µL) were treated with peptides or the conventional antibiotic amoxicillin at a final concentration corresponding to five times their MIC. Bacteria were then incubated in micro-aerobic conditions at 37 °C using GasPak units. […] The petri dishes were then incubated 16 h at 37 °C in microaerophilic conditions before counting of growing colonies. The number of surviving bacteria was calculated using the number of observed colonies and the dilution factor. The experiment was done in triplicate.

For `CC[C@H](C)[C@H](NC(=O)CNC(=O)[C@H](CO)NC(=O)[C@H](CC(C)C)NC(=O)[C@@H](N)Cc1ccccc1)C(=O)N[C@H](C(=O)NCC(=O)N[C@@H](CCSC)C(=O)N[C@@H](CC(C)C)C(=O)N[C@H](C)C(=O)N[C@@H](CCCCN)C(=O)N[C@@H](CC(C)C)C(=O)N[C@@H](Cc1ccccc1)C(N)=O)C(C)C` [NST1, H-Phe^1-Leu^2-Ser^3-Gly^4-Ile^5-Val^6-Gly^7-Met^8-Leu^9-D-Ala^10-Lys^11-Leu^12-Phe^13-NH2] (H-FLSGIVGML[dA]KLF-NH2), the “MIC on H. pylori (ATCC 43504)” value ([1]; MH medium, 24 h, microaerophilic) was 1.5 µM, the “MIC on H. pylori (ATCC 43504) in MH supplemented with 10% FBS” value ([1]; MH supplemented with 10% FBS) was 6.25 µM and the “MIC values against resistant clinical strains (span over all strains)” value ([2]; all resistant clinical strains, MH + 10% FBS) was 6.25 to 12.5 µM. For the same molecule, the MIC ([2]; clinical strain BM18, resistance Clari/Metro) was 12.5 µM, the MIC ([2]; clinical strain EM68, resistance Clari/Metro) was 12.5 µM and the MIC ([2]; clinical strain LN18, resistance Clari) was 6.25 µM. The MIC ([2]; clinical strain MF76, resistance Clari/Metro) was 12.5 µM, the MIC ([2]; clinical strain MP78, resistance Clari/Metro) was 12.5 µM and the MIC ([2]; clinical strain MS67, resistance Clari/Metro) was 12.5 µM. The MIC ([2]; clinical strain NM44, resistance Clari/Metro) was 6.25 µM, the “membrane permeabilization of H. pylori (ranking in words)” value [3] was “strongest permeabilization” and the “decrease of the number of CFUs” value ([4]; 20 min, PBS pH 6, 5-times MIC) was “three”. For the same molecule, the killing ([4]; 20 min, PBS pH 6, 5-times MIC) was 99%, the killing ([4]; 60 min, presence of mucus (porcine MUC2/MUC3 1 mg/mL or N87 cells), 5-times MIC) was 91–98% and the survival ([4]; 3 h, PBS pH 6, 5-times MIC) was 0%.
